Consider five molecules from patent publication US20180100153A1, “Method and kit for use in inhiiting tumor progression, predicting or determining tumor progression state in VGF expressing cancers” (Truebio LLC, priority 2016, published 2018).

The test system of test [1] is HCC827GR cells. Briefly: IC50 analysis via alamarBlue assay, HCC827GR versus HCC827. The format is cell-based.
In test [2] the test system is HCC827GR/tet-on control cells. Briefly: Xenograft assay with doxycycline. The format is in vivo, nude mice. As to conditions: daily oral Dox for 30 days. How it is done:
FIG. 13 illustrates VGF as a therapeutic target. (FIG. 13A) Q-PCR (left) analysis for VGF expression and clonogenic assay (right) in HCC827GR/tet-on control cells. […] (FIG. 13B) Xenograft assay for assessing the effect of doxycycline treatment on tumor growth. HCC827GR/tet-on control cells were injected subcutaneously into nude mice. 32 days after cancer cell injection, mice were treated with or without daily oral doxycycline (Dox) for another 30 days. Tumor volume was monitored over time as indicated (left). Tumor weight was measured after harvest (upper right). The representative photographs illustrate tumor growth 30 days after Dox or normal saline treatment (lower right). ns means no significant (n=6 mice/group). (FIG. 13C) Q-PCR (left) analysis for VGF expression and clonogenic assay (right) in HCC827GR/tet-on shVGF cells in which shVGF was induced by doxycycline (Dox). […] HCC827GR/tet-on-shVGF cells were injected subcutaneously into nude mice. 32 days after cancer cell injection, mice were treated with or without daily oral doxycycline (Dox) for another 30 days. Tumor volume was monitored over time as indicated (left). Tumor weight was measured after harvest (upper right). The representative photographs illustrate tumor growth 30 days after Dox or normal saline treatment (lower right). Scale bar, 1 mm. Error bars indicate the SEM (n=6 mice/group; *P<0.05). […]

For test [3], the system named is lung adenocarcinoma harboring EGFR mutations (exon 19 deletions or the L858R mutation). As to conditions: References 5 to 10; cited from earlier work.
Test [4] concerns HCC827GR cells infected with shVGF. Briefly: alamarBlue cell viability assay after VGF knockdown. The format is cell-based. The conditions noted are these: HCC827GR cells with VGF-silencing, gefitinib 3 days, FIG. 3F. An excerpt:
FIG. 3 illustrates expression of VGF in EGFR-TKI resistant lung cancer cells. […] Tubulin served as a loading control. (FIG. 3B) Q-PCR analysis (left) for measuring the expression of VGF in HCC827GR-2, an independently selected EGFR-TKI resistant HCC827 pool, versus and HCC827 cells. Tubulin served as a loading control. Gene expression analysis (right) for VGF expression in HCC827 and EGFR-TKI resistant clones (ER3 and T15-2) from the database of GSE38310. (FIG. 3C) Gene expression analysis for VGF expression in different subtypes of lung cancer cell lines from the database of […] (CCLE). SCLC: small cell lung cancer; ADC: adenocarcinoma; SCC: squamous cell carcinoma. […] (FIG. 3E) Q-PCR analysis (left) and western blotting (right) for measuring VGF expression in HCC827GR cells infected with lentiviral vectors encoding shVGF (shVGF) or scrambled control (SC). shVGF#1 and shVGF#2 target different regions in VGF mRNA.
To identify genes involved in EGFR-TKI resistance and EMT in lung adenocarcinoma, a gene expression profiling assay followed by Q-PCR analysis were performed in HCC827GR versus HCC827 cells (FIG. 3A, upper). […] . […] Consistently, the expression of VGF was elevated in the independently isolated TKI resistance HCC827 cells (FIGS. 3B and 10). […] The inventors further examined VGF levels in cell lines derived from different subtypes of lung cancer. […] .

The subject of test [5] is HCC827GR cells. Briefly: Western blot of apoptosis markers (activated caspase 3, cleaved PARP). The format is cell-based. As to conditions: gefitinib 1 μM, 24 hr.
A further test has as its system HEK293T cells. Briefly: Clonogenic analysis of VGF mutants under low serum stress. The format is cell-based. The conditions noted are these: transfected HEK293T cells, DMEM with 1% FBS, 10 days. An excerpt: FIG. 18 illustrates effect of VGF mutants on low serum stress. (FIG. 18A) Schematic representation of VGF deletion mutations (FIG. 18B) A table summarizing clonogenic analysis of HEK293T cells transfected with expression vector encoding empty control (Ctrl), full-length VGF cDNA (VGF), or truncated VGF cDNA as described in the FIG. 18A under the growth of DMEM supplement with 1% FBS for 10 days.
The effect of VGF mutants on low serum stress was examined (FIG. 18). Clonogenic analysis of HEK293T cells transfected with expression vector encoding empty control, full-length VGF cDNA, or truncated VGF cDNA under the growth of DMEM supplement with 1% FBS for 10 days were summarized in FIG. 18B.

As for `C=CC(=O)Nc1cc(Nc2nccc(-c3cn(C)c4ccccc34)n2)c(OC)cc1N(C)CCN(C)C` [AZD9291], in the test with HCC827GR cells [1], the “IC50 analysis (EGFR-TKI resistance)” value was “resistance”.

Turning to `C[C@H]1c2cccc(O)c2C(=O)C2=C(O)[C@]3(O)C(=O)C(C(N)=O)=C(O)[C@@H](N(C)C)[C@@H]3[C@@H](O)[C@@H]21` [Dox, doxycycline], the tumor growth entry in test [2] is “no effect”.

For `C#Cc1cccc(Nc2ncnc3cc(OCCOC)c(OCCOC)cc23)c1` [erlotinib], in test [3], the therapeutic response result is “profound therapeutic responses”.

Regarding `COc1cc2ncnc(Nc3ccc(F)c(Cl)c3)c2cc1OCCCN1CCOCC1` [gefitinib], the “cell viability (sensitivity to gefitinib)” value in test [4] was “sensitive”. Also, the “expression of activated caspase 3 and PARP (apoptosis)” value with HCC827GR cells [5] is “resistant to gefitinib-induced apoptosis”.

B1: VGF 1-615: full length VGF, expressed from full-length VGF cDNA vector (protein, UniProt O15240 1-615, looked up)
chain: MKALRLSASALFCLLLINGLGAAPPGRPEAQPPPLSSEHKEPVAGDAVPGPKDGSAPEVRGARNSEPQDEGELFQGVDPRALAAVLLQALDRPASPPAPSGSQQGPEEEAAEALLTETVRSQTHSLPAPESPEPAAPPRPQTPENGPEASDPSEELEALASLLQELRDFSPSSAKRQQETAAAETETRTHTLTRVNLESPGPERVWRASWGEFQARVPERAPLPPPAPSQFQARMPDSGPLPETHKFGEGVSSPKTHLGEALAPLSKAYQGVAAPFPKARRPESALLGGSEAGERLLQQGLAQVEAGRRQAEATRQAAAQEERLADLASDLLLQYLLQGGARQRGLGGRGLQEAAEERESAREEEEAEQERRGGEERVGEEDEEAAEAEAEAEEAERARQNALLFAEEEDGEAGAEDKRSQEETPGHRRKEAEGTEEGGEEEDDEEMDPQTIDSLIELSTKLHLPADDVVSIIEEVEEKRKRKKNAPPEPVPPPRAAPAPTHVRSPQPPPPAPAPARDELPDWNEVLPPWDREEDEVYPPGPYHPFPNYIRPRTLQPPSALRRRHYHHALPPSRHYPGREAQARRAQEEAEAEERRLQEQEELENYIEHVLLRRP
modifications: full-length
notes: full length VGF, expressed from full-length VGF cDNA vector
For B1, the “cell survival in clonogenic analysis” value in the test on HEK293T cells was “survived”.
